Conditions: 101.33 kPa, Liquid; for speed of sound: Pulse-echo method; for mass density: Vibrating tube method

CCCC(=O)[O-].C[NH2+]CCO [N-methyl-2-hydroxyethylammonium butanoate]
Conditions | mass density [kg/m3] | speed of sound [m/s] | viscosity [mPa·s]
308.15 K | 1032.53 | 1583.1 | 162.8
308.4 K | 1032.37 | 1582.3 | –
308.65 K | 1032.2 | 1581.5 | –
308.9 K | 1032.03 | 1580.7 | –
309.15 K | 1031.86 | 1580 | –
309.4 K | 1031.69 | 1579.2 | –
309.65 K | 1031.52 | 1578.4 | –
309.9 K | 1031.35 | 1577.6 | –
310.15 K | 1031.18 | 1576.8 | –
310.4 K | 1031.01 | 1576 | –
310.65 K | 1030.85 | 1575.3 | 141.4
310.91 K | 1030.68 | 1574.5 | –
311.16 K | 1030.51 | 1573.7 | –
311.4 K | 1030.34 | 1572.9 | –
311.65 K | 1030.17 | 1572.2 | –
311.91 K | 1030 | 1571.4 | –
312.16 K | 1029.83 | 1570.6 | –
312.41 K | 1029.65 | 1569.8 | –
312.65 K | – | – | 127.1
312.66 K | 1029.49 | 1569 | –
312.91 K | 1029.32 | 1568.3 | –
313.16 K | 1029.14 | 1567.5 | –
313.4 K | 1028.97 | 1566.7 | –
313.66 K | 1028.8 | 1565.9 | –
313.9 K | 1028.64 | 1565.2 | –
314.15 K | 1028.46 | 1564.4 | –
314.4 K | 1028.29 | 1563.6 | –
314.65 K | 1028.12 | 1562.9 | –
314.9 K | 1027.95 | 1562.1 | –
315.15 K | 1027.78 | 1561.3 | 107.78
315.41 K | 1027.61 | 1560.5 | –
315.65 K | 1027.43 | 1559.8 | –
315.91 K | 1027.26 | 1559 | –
316.16 K | 1027.09 | 1558.2 | –
316.41 K | 1026.92 | 1557.5 | –
316.66 K | 1026.75 | 1556.7 | –
316.91 K | 1026.58 | 1555.9 | –
317.16 K | 1026.41 | 1555.2 | –
317.4 K | 1026.23 | 1554.3 | –
317.66 K | 1026.06 | 1553.4 | –
317.91 K | 1025.89 | 1552.6 | –
318.15 K | – | – | 93.33
318.16 K | 1025.72 | 1551.9 | –
318.41 K | 1025.55 | 1551.1 | –
318.65 K | 1025.37 | 1550.3 | –
318.9 K | 1025.2 | 1549.5 | –
319.16 K | 1025.03 | 1548.7 | –
319.41 K | 1024.86 | 1548 | –
319.65 K | 1024.69 | 1547.2 | –
319.91 K | 1024.51 | 1546.4 | –
320.15 K | – | – | 79.57
320.16 K | 1024.34 | 1545.6 | –
320.41 K | 1024.17 | 1544.8 | –
320.65 K | 1024 | 1544 | –
320.91 K | 1023.82 | 1543.3 | –
321.15 K | 1023.65 | 1542.5 | –
321.41 K | 1023.47 | 1541.7 | –
321.66 K | 1023.3 | 1540.9 | –
321.9 K | 1023.13 | 1540.1 | –
322.15 K | 1022.96 | 1539.3 | –
322.41 K | 1022.78 | 1538.6 | –
322.65 K | 1022.61 | 1537.8 | –
322.91 K | 1022.43 | 1537 | –
323.15 K | – | – | 71.53
323.16 K | 1022.26 | 1536.2 | –
323.41 K | 1022.08 | 1535.4 | –
323.65 K | 1021.91 | 1534.7 | –
323.91 K | 1021.74 | 1533.9 | –
324.16 K | 1021.56 | 1533.1 | –
324.41 K | 1021.39 | 1532.3 | –
324.65 K | 1021.22 | 1531.5 | –
324.9 K | 1021.04 | 1530.8 | –
325.16 K | 1020.87 | 1530 | –
325.4 K | 1020.69 | 1529.2 | –
325.66 K | 1020.52 | 1528.4 | –
325.9 K | 1020.35 | 1527.7 | –
326.16 K | 1020.17 | 1526.9 | –
326.41 K | 1019.99 | 1526.1 | –
326.66 K | 1019.82 | 1525.3 | –
326.9 K | 1019.65 | 1524.5 | –
327.16 K | 1019.47 | 1523.7 | –
327.4 K | 1019.29 | 1522.9 | –
327.66 K | 1019.12 | 1522.2 | –
327.9 K | 1018.95 | 1521.4 | –
328.15 K | 1018.77 | 1520.6 | –
328.41 K | 1018.6 | 1519.8 | –
328.66 K | 1018.42 | 1519 | –
328.9 K | 1018.25 | 1518.2 | –
329.16 K | 1018.07 | 1517.4 | –
329.4 K | 1017.9 | 1516.6 | –
329.65 K | 1017.72 | 1515.9 | –
329.9 K | 1017.54 | 1515.1 | –
330.16 K | 1017.37 | 1514.3 | –
330.41 K | 1017.19 | 1513.5 | –
330.66 K | 1017.01 | 1512.7 | –
330.91 K | 1016.84 | 1511.9 | –
331.16 K | 1016.66 | 1511.1 | –
331.41 K | 1016.48 | 1510.3 | –
331.66 K | 1016.3 | 1509.6 | –
331.91 K | 1016.13 | 1508.8 | –
332.16 K | 1015.96 | 1508 | –
332.41 K | 1015.78 | 1507.2 | –
332.66 K | 1015.6 | 1506.4 | –
332.91 K | 1015.43 | 1505.6 | –
333.16 K | 1015.25 | 1504.9 | –
333.41 K | 1015.07 | 1504.1 | –
333.66 K | 1014.89 | 1503.3 | –
333.91 K | 1014.72 | 1502.5 | –
334.16 K | 1014.54 | 1501.7 | –
334.41 K | 1014.36 | 1500.9 | –
334.66 K | 1014.18 | 1500.2 | –
334.91 K | 1014.01 | 1499.4 | –
335.16 K | 1013.83 | 1498.6 | –
335.41 K | 1013.65 | 1497.8 | –
335.66 K | 1013.47 | 1497 | –
335.91 K | 1013.3 | 1496.2 | –
336.16 K | 1013.12 | 1495.4 | –
336.41 K | 1012.94 | 1494.7 | –
336.66 K | 1012.76 | 1493.9 | –
336.9 K | 1012.58 | 1493.1 | –
337.16 K | 1012.4 | 1492.3 | –
337.4 K | 1012.22 | 1491.5 | –
337.66 K | 1012.04 | 1490.8 | –
337.9 K | 1011.86 | 1490 | –
338.15 K | 1011.69 | 1489.3 | –

From the NIST ThermoML archive (doi:10.1021/je900550v)
